Source: patent US6906059B2, “Pharmaceutical composition with protective action against oxidative/toxic substances, especially cardiotoxic substances” (Solvay Pharmaceuticals, priority 1999, dated 2005)

Key:
[1] = system: rabbits with adriamycin-induced cardiomyopathy; assay: Reduction of adriamycin-induced cardiac remodelling processes in the rabbit heart (heart/body weight ratio, hydroxyproline content); type: in vivo; conditions: for Ratio of heart weights to body weight: X ± SEM, n = 8
Protocol: • A) The tests were carried out on rabbits of both sexes having an initial body weight of 2.1±0.2 kg. The animals were divided into 3 groups:
1. untreated animals (=control animals, n=20);
2. animals treated with adriamycin (+placebo instead of test substance, n=8);
3. animals treated with adriamycin and test substance (n=8). • The test substance used was (3S,2R′)-3-{1-[2′-(ethoxycarbonyl)-4′-phenyl-butyl]-cyclopentane-1-carbonylamino}-2,3,4,5-tetrahydro-2-oxo-1H-1-benzazepin-1-acetic acid, which is representative of the substances of Formula I usable according to the invention.
Groups 2 and 3 were administered 1 mg/kg adriamycin i.v. twice a week for 4 weeks. Group 3 of rabbits having adriamycin-induced cardiomyopathy was administered a daily oral dose of the test substance (30 mg/kg body weight) for 4 weeks, starting on the first day of adriamycin treatment, with their food. Once the 4 weeks had ended, the hearts were isolated and weighed. Then they were fixed with formalin for later biochemical investigations (hydroxyproline content of the heart tissue, measured with the HPLC amino acid analysis after Blankenship, D. T. et al., Aunal. Biochem. 178, 227-232, 1989 and Schuster, R., J. Chromatogr. 431, 271 -284, 1989). Both the increase in heart weight in relation to body weight and the hydroxyproline content in the heart tissue compared with normal values are indicators of remodelling processes taking place in the heart.

[2] = system: rats with adriamycin-induced cardiomyopathy; assay: Inhibition of the pro-oxidative action of adriamycin in rats (plasma α-tocopherol, lipid peroxides, ferroxidase activity); type: in vivo, male Wistar rats; conditions: for Ferroxidase activity in plasma / Lipid peroxides (measured as malonic dialdehyde thiobarbituric acid adducts) in plasma / α-Tocopherol (Vitamin E) in plasma: X ± SEM
Protocol: The left-ventricular myocardial hydroxyproline concentration, which is a measurement of cardiac fibrous tissue growth, was less in the animals treated with test substance (group 3) than in the control animals treated with adriamycin (group 2). […] If the test substance was also administered in addition to adriamycin (group 3), the adriamycin-induced increase in the hydroxyproline content could be reduced by about 13% compared with animals treated with placebo (group 2). […] The animals were divided into 4 groups:
1. untreated animals (=control animals, n=19);
2. animals treated with adriamycin (+placebo instead of test substance, n=14);
3. animals treated with test substance (n=11);
4. animals treated with adriamycin and test substance (n=14).
The test substance used was (3S,2R′)-3-{1-[2′-(ethoxycarbonyl)-4′-phenyl-butyl]-cyclopentane-1-carbonylamino}-2,3,4,5-tetrahydro-2-oxo-1H-1-benzazepin-1-acetic acid, being representative of the substances of Formula I usable according to the invention.
The animals of groups 2 and 4 were administered 15 mg/kg adriamycin intraperitoneally over a period of two weeks. The animals of group 4 were administered 30 mg/kg of the test substance daily for two weeks with their food, starting with the first day of adriamycin treatment. The animals of group 3 were likewise administered 30 mg/kg of the test substance daily for two weeks with their food (but without adriamycin).
Once the two-weeks' treatment had ended, the animals were anaesthetised with pentobarbital (50 mg/kg i.p.) and venous blood samples were taken, from which plasma was obtained. The concentration of lipid-peroxides and the ferroxidase activity in the plasma was measured using the methods of Wong, S. H. Y. et al., Clin. Chem. 33, 214-220, 1987 or Johnson, D. A. et al., Clin. Chem. 13, 142-150, 1967. Furthermore, the α-tocopherol concentration in the plasma was measured using the method of Catignani, G. L. and Bieri, J. G., Clin. Chem. 29, 708-712, 1983.

[3] = adriamycin + test substance 30 mg/kg daily oral v. adriamycin + placebo, 4 weeks
[4] = Group 3: test substance 30 mg/kg daily with food for two weeks, no adriamycin, n = 11
[5] = Group 4: adriamycin 15 mg/kg i.p. + test substance 30 mg/kg daily, two weeks, n = 14
[6] = adriamycin + test substance v. adriamycin + placebo
[7] = group 4 v. group 2 (adriamycin + placebo)
[8] = test substance alone v. untreated
[9] = group 2 (adriamycin) v. group 1 (untreated)
[10] = Group 2: adriamycin 15 mg/kg i.p. over two weeks + placebo, n = 14
[11] = group 2 (adriamycin) v. group 1 (control)

CCOC(=O)[C@H](CCc1ccccc1)CC1(C(=O)N[C@H]2CCc3ccccc3N(CC(=O)O)C2=O)CCCC1 [test substance, (3S,2R′)-3-{1-[2′-(ethoxycarbonyl)-4′-phenyl-butyl]-cyclopentane-1-carbonylamino}-2,3,4,5-tetrahydro-2-oxo-1H-1-benzazepin-1-acetic acid]
Ratio of heart weights to body weight ([1]; Group 3: adriamycin 1 mg/kg i.v. twice a week + test substance 30 mg/kg daily oral, 4 weeks): 2.79 ± 0.08 g/kg
% Effect of the test substance (group 3 v. 2) on hydroxyproline content of the heart [1, 3]: −13.3%
% Effect of the test substance (group 3 v. 2) on ratio of heart weights to body weight [1, 3]: −17.7%
Reduction of the adriamycin-induced increase in the heart/body weight ratio ([1]; group 3 v. group 2 (placebo)): about 18%
Reduction of the adriamycin-induced increase in the hydroxyproline content ([1]; group 3 v. group 2 (placebo)): about 13%
Ferroxidase activity in plasma [2, 4]: 0.2545 ± 0.0104 IU/l
Lipid peroxides (measured as malonic dialdehyde thiobarbituric acid adducts) in plasma [2, 4]: 2.319 ± 0.086 µmol/L
α-Tocopherol (Vitamin E) in plasma [2, 4]: 657.8 ± 21.0 µg/dL
Ferroxidase activity in plasma [2, 5]: 0.2534 ± 0.0128^+ IU/l
Lipid peroxides (measured as malonic dialdehyde thiobarbituric acid adducts) in plasma [2, 5]: 3.030 ± 0.235^+++ μmol/l
α-Tocopherol (Vitamin E) in plasma [2, 5]: 407.9 ± 33.0 µg/dL
% Effect of the test substance on plasma ferroxidase activity, Group 4 v. 2 [2, 6]: −23.0%
% Effect of the test substance on plasma lipid peroxides, Group 4 v. 2 [2, 6]: −32.3%
% Effect of the test substance on plasma α-tocopherol, Group 4 v. 2 [2, 6]: +20.6%
Increase of α-tocopherol content in the plasma ([2]; group 3 (test substance) v. group 1 (control)): about 95%
Increase of α-tocopherol content in the plasma ([2]; group 4 (adriamycin + test substance) v. group 2 (adriamycin + placebo)): about 21%
Decrease of ferroxidase activity [2, 7]: 23%
Reduction of the adriamycin-induced increase in the concentration of lipid peroxides in the plasma [2, 7]: about 32%
% Effect of the test substance on plasma ferroxidase activity, Group 3 v. 1 [2, 8]: −5.7%
% Effect of the test substance on plasma lipid peroxides, Group 3 v. 1 [2, 8]: +19.6%
% Effect of the test substance on plasma α-tocopherol, Group 3 v. 1 [2, 8]: +95.2%

COc1cccc2c1C(=O)c1c(O)c3c(c(O)c1C2=O)C[C@@](O)(C(=O)CO)C[C@@H]3O[C@H]1C[C@H](N)[C@H](O)[C@H](C)O1 [adriamycin, reference compound]
Ratio of heart weights to body weight ([1]; Group 2: adriamycin 1 mg/kg i.v. twice a week for 4 weeks + placebo): 3.39 ± 0.13 g/kg
Increase of heart/body weight ratio compared with untreated control group [1, 9]: about 69%
Increase of myocardial hydroxyproline content compared with untreated control group [1, 9]: about 60%
Lipid peroxides (measured as malonic dialdehyde thiobarbituric acid adducts) in plasma [2, 10]: 4.476 ± 0.404 µmol/L
α-Tocopherol (Vitamin E) in plasma [2, 10]: 338.2 ± 28.0 µg/dL
Increase of concentration of lipid peroxides in the rat plasma [2, 11]: about 131%
Increase of total activity of the ferroxidase in the rat plasma [2, 11]: about 22%
